Results published in publication PMC8041433 (Environmental Health Perspectives, 2021).
Values joined by “and” are separate entries in the source; they are usually repeats but may differ in a detail not shown here. Identical values can stand only once. Counter-ions that a name gives are not always drawn. Like-named read-outs stand apart in the source and are kept apart here.

Columns and labels:
recombinant human AChE [1] = molecular target: T1, recombinant human AChE (Homo sapiens, UniProt P22303); assay: biochemical
T1 sequence (P22303 32-614): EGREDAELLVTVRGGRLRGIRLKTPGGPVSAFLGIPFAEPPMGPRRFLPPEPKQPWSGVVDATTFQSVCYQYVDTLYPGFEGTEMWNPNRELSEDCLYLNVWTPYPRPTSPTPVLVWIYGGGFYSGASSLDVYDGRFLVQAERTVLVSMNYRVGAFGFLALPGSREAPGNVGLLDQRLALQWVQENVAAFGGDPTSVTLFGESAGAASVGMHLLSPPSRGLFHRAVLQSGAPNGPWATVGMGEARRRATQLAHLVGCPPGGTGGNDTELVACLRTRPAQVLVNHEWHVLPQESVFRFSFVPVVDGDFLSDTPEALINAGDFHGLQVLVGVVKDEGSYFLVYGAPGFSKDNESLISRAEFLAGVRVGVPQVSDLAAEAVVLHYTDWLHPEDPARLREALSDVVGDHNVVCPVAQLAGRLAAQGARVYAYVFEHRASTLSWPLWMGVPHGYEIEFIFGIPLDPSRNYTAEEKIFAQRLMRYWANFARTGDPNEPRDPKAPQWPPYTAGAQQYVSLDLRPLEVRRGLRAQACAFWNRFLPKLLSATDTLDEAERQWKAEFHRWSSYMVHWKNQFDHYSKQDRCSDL

recombinant human AChE [2] = molecular target: T1, recombinant human AChE; assay: biochemical; remark: listed apart in the source
AChE in SH-SY5Y cells = AChE in SH-SY5Y cells (Homo sapiens, UniProt P22303); assay: cell-based
Sequence of AChE in SH-SY5Y cells (P22303 32-614): as above

[3] = molecular target: AChE in SH-SY5Y spheroids (Homo sapiens, UniProt P22303); assay: cell-based; conditions: potency (IC50)
Sequence of AChE in SH-SY5Y spheroids (P22303 32-614): as above

[4] = molecular target: AChE in neural stem cells (Homo sapiens, UniProt P22303); assay: cell-based
Sequence of AChE in neural stem cells (P22303 32-614): as above

[5] = molecular target: AChE in neural stem cell spheroids (Homo sapiens, UniProt P22303); assay: cell-based; conditions: for IC50: potency (IC50)
Sequence of AChE in neural stem cell spheroids (P22303 32-614): as above

recombinant human AChE [6] = molecular target: T1, recombinant human AChE; assay: biochemical; format: biochemical; conditions: for AC50: AC50 (uM)
recombinant human AChE [7] = molecular target: T1, recombinant human AChE
recombinant human AChE [8] = molecular target: T1, recombinant human AChE; assay: biochemical; remark: listed apart in the source
[9] = potency (IC50), SH-SY5Y cells monolayer
[10] = Neural stem cell spheroid (24 h)
[11] = Neural stem cell spheroid (48 h)
[12] = potency (IC50), Enzyme with microsomes
Wherever IR or R is given: key: Reversible (R); Irreversible (IR); ND, not detected in enzyme-based AChE inhibition assay from current study.

| SMILES | CC-v2 (curve classes) (recombinant human AChE [1]) | IC50 (recombinant human AChE [1]; potency (IC50), Enzyme) | IC50 (recombinant human AChE [2]) | CC-v2 (curve classes) (AChE in SH-SY5Y cells) | IC50 (AChE in SH-SY5Y cells; IC50 (uM)) | IC50 (AChE in SH-SY5Y cells; [9]) | IC50 ([3]; SH-SY5Y spheroids (24 h)) | IC50 ([3]; SH-SY5Y spheroids (48 h)) | IC50 [4] | IC50 [5, 10] | IC50 [5, 11] | AC50 (recombinant human AChE [6]) | CC-v2 (curve classes) (recombinant human AChE [7]) | IC50 (recombinant human AChE [8]; [12]) | Efficacy (recombinant human AChE [1]) | Efficacy (recombinant human AChE [7]) | IR or R (recombinant human AChE [6]) | other results |
| --- | --- | --- | --- | --- | --- | --- | --- | --- | --- | --- | --- | --- | --- | --- | --- | --- | --- | --- |
| CNC(=O)O/N=C/C(C)(C)[S+](C)[O-] (stereo not drawn) [Aldicarb sulfoxide] | -1.1 | 0.41 ± 0.02 µM | 0.78 ± 0.22 µM | -1.1 | 0.354 µM and 0.322 µM and 0.397 µM and 0.287 µM | 0.67 ± 0.04 µM | 0.46 ± 0.08 µM | 0.56 µM | 0.34 ± 0.04 µM | 0.24 ± 0.03 µM | 0.27 ± 0.17 µM | 498 nM and 789 nM and 885 nM and 993 nM and 1.11 µM and 559 nM (2×) and 198 nM and 627 nM | -1.1 | 0.68 ± 0.09 µM |  |  |  | fold more potent than aldicarb (recombinant human AChE [1]): 15 fold; IC50 (recombinant human AChE [1]; IC50): 0.61 µM |
| CNC(=O)Oc1ccc(N(C)C)c(C)c1 [Aminocarb] | -1.1 | 7.92 ± 0.91 µM | 9.57 ± 0.62 µM | -1.1 | 5.64 µM and 7.1 µM and 6.33 µM | 5 ± 0.57 µM | 12.3 ± 9.41 µM | 6.85 ± 3.73 µM | 11.7 ± 2.1 µM | 25.7 ± 7.15 µM | 29.1 µM | 17.7 µM and 22.2 µM and 12.5 µM and 28 µM and 25 µM and 7.03 µM and 11.1 µM and 7.89 µM | -2.1 | 8.21 ± 0.55 µM | -98.887 | -71.886 |  |  |
| CCN1CCCC1CNC(=O)c1cc(S(=O)(=O)CC)c(N)cc1OC (stereo not drawn) [Amisulpride, reference compound] | -2.2 | 14.3 µM | 24.3 µM |  | 21.9 µM and 34.7 µM and 38.9 µM | 30.7 µM | 11.1 µM | 28.6 µM | 17.2 µM |  | 12.1 µM | 17.2 µM (2×) and 6.85 µM and 19.3 µM (2×) and 3.43 µM and 15.3 µM and 21.7 µM | -2.4 | 21.8 µM | -62.971 | -30.734 | R | IC50 (recombinant human AChE [1]; IC50 (uM)): 15.5 µM; potency (IC50), Neural stem cell spheroid (24 h) [5]: Inactive; IC50 (recombinant human AChE [8]; IC50 (uM)): 38.9 µM |
| COP(=O)(OC)SCn1c(=O)oc2cc(Cl)cnc21 [Azamethiphos] | -1.1 | 1.91 ± 0.26 µM | 3.81 ± 0.25 µM | -1.1 | 3.56 µM and 3.17 µM | 2.81 ± 0.32 µM | 4.05 ± 2.65 µM | 3.3 ± 0.59 µM | 4.79 ± 0.31 µM | 1.82 ± 0.76 µM | 3.08 ± 0.77 µM | 11.1 µM and 15.7 µM and 14 µM and 39.5 µM and 35.2 µM and 17.7 µM and 7.03 µM and 7.89 µM and 9.93 µM | -2.1 | 6.34 ± 1.18 µM | -98.261 | -92.198 |  |  |
| CN1C(=O)COc2c(C(=O)NC3CN4CCC3CC4)cc(Cl)cc21 (stereo not drawn) [Azasetron hydrochloride, reference compound] | -2.2 | 7.72 µM | 8.98 ± 0.61 µM | -2.1 and -2.2 | 38.9 µM and 34.7 µM and 17.4 µM | 6.6 µM | 9.64 µM | 6.85 µM | 6.88 µM | 16.5 µM | 18.8 µM | 17.2 µM (2×) and 3.43 µM and 21.7 µM and 19.3 µM (2×) and 12.2 µM (2×) and 15.3 µM | 4 | 8.97 µM | -34.351 | 0 | R | IC50 (recombinant human AChE [1]; IC50 (uM)): 30.9 µM |
| CN1CCCC(n2nc(Cc3ccc(Cl)cc3)c3ccccc3c2=O)CC1 (stereo not drawn) [Azelastine (hydrochloride), reference compound] |  | 25.4 µM | 36.6 ± 10.3 µM |  |  | 20.9 µM | 13.8 µM | 19.3 µM | 22.6 µM |  | 4.45 µM | 27.3 µM (3×) and 24.3 µM (2×) and 30.6 µM (2×) |  | 27.4 µM |  |  | R | potency (IC50), Neural stem cell spheroid (24 h) [5]: Inactive |
| CCOP(=S)(OCC)SCn1nnc2ccccc2c1=O [Azinphos-ethyl] | -2.1 | 42.8 µM | 22.5 ± 4.21 µM | -1.1 | 12.6 µM and 11.2 µM and 15.9 µM | 10.9 µM | 25.2 µM | 12 µM | 4.79 µM | 2.23 µM | 4.36 µM | 49.8 µM (2×) and 55.9 µM (2×) and 70.3 µM and 39.5 µM and 44.4 µM | -1.1 | 2.14 µM | -105.247 | -98.316 |  |  |
| CNC(=O)Oc1cccc2c1OC(C)(C)O2 [Bendiocarb] | -1.1 | 0.51 ± 0.03 µM | 0.92 ± 0.06 µM | -1.1 |  | 1.07 ± 0.06 µM | 44.7 ± 19.4 µM | 54.1 ± 7.44 µM | 46.2 ± 3.12 µM | 45.2 ± 10.3 µM | 47.1 µM | 70.3 µM (2×) and 78.9 µM and 88.5 µM (2×) and 55.9 µM and 62.7 µM | -1.1 | 0.88 µM |  |  | R |  |
| CCOC(=O)CCN(SN(C)C(=O)Oc1cccc2c1OC(C)(C)C2)C(C)C [Benfuracarb] | -1.1 | 4.97 µM | 1.85 ± 0.24 µM | -1.1 | 0.252 µM and 0.356 µM and 0.0448 µM | 1.25 µM | 1.76 µM | 0.84 µM | 7.67 µM | 12.1 µM | 12.6 µM | 0.885 µM and 0.703 µM and 0.789 µM and 1.25 µM and 0.993 µM and 0.627 µM and 0.444 µM and 0.314 µM and 0.498 µM | -1.1 | 1.4 µM | -95.401 | -96.321 |  |  |
| O=c1[nH]c2ccc([S+]([O-])CCN3CCC(Cc4ccc(F)cc4)CC3)cc2o1 (stereo not drawn) [Besonprodil, reference compound] | -1.1 | 7.92 ± 0.91 µM | 16.4 ± 1.11 µM | -1.1 | 6.33 µM | 8.57 ± 1.17 µM | 4.75 ± 3.24 µM | 7.44 ± 1.68 µM | 15.8 ± 1.81 µM | 11.5 ± 3.7 µM |  | 14 µM (2×) and 9.93 µM (2×) and 15.7 µM (2×) and 7.03 µM | -2.1 | 15.8 ± 1.81 µM | -92.894 | -73.433 | R | potency (IC50), Neural stem cell spheroid (48 h) [5]: Inactive |
| CNC(=O)Oc1cccc2c1OC(C)(C)C2 [Carbofuran] | -1.1 | 0.09 µM | 0.23 ± 0.03 µM | -1.1 | 0.0894 µM and 0.725 µM and 0.647 µM and 0.1 µM and 0.458 µM | 0.29 ± 0.05 µM | 0.64 ± 0.97 µM | 0.27 ± 0.05 µM | 2.19 ± 0.61 µM | 2.44 ± 0.61 µM | 4.82 ± 0.66 µM | 993 nM (2×) and 1.11 µM (2×) and 885 nM and 125 nM and 314 nM and 157 nM | -1.1 | 0.22 ± 0.04 µM |  |  |  |  |
| CCOP(=S)(OCC)SCSc1ccc(Cl)cc1 [Carbophenothion] | -2.2 |  |  |  | 89.4 µM |  | 28.1 µM | 19.6 µM | 2.96 µM | 2.19 µM | 3.31 µM | 19.3 µM and 17.2 µM and 21.7 µM | 4 | 3.74 µM | -28.575 | -18.784 |  | AChE inhibition (result in words) (recombinant human AChE [1]): did not show effects; potency (IC50), Enzyme (recombinant human AChE [1]): Inactive; IC50 (recombinant human AChE [1]; IC50 (uM)): 89.4 µM; potency (IC50), Enzyme-based assay with heat-inactivated microsomes (recombinant human AChE [2]): Inactive; potency (IC50), SH-SY5Y cells monolayer (AChE in SH-SY5Y cells): Inactive |
| CCOP(=S)(OCC)Oc1ccc2c(C)c(Cl)c(=O)oc2c1 [Coumaphos] | 4 and -2.2 and -2.1 |  |  | 4 and -1.1 and -2.1 | 12.6 µM and 22.7 µM and 22.4 µM and 28.6 µM and 17.8 µM and 12.8 µM |  | 27.1 µM | 20.6 µM | 22.6 µM | 21.1 µM | 21.4 µM | 24.3 µM and 27.3 µM |  | 5.51 µM |  |  |  | AChE inhibition (result in words) (recombinant human AChE [1]): did not show effects; potency (IC50), Enzyme (recombinant human AChE [1]): Inactive; potency (IC50), Enzyme-based assay with heat-inactivated microsomes (recombinant human AChE [2]): Inactive; potency (IC50), SH-SY5Y cells monolayer (AChE in SH-SY5Y cells): Inactive |
| CCOP(=S)(OCC)Oc1cc(C)nc(C(C)C)n1 [Diazinon] |  | 19.4 ± 2.22 µM |  | 4 and -2.1 and -1.1 |  | 11.3 ± 1.44 µM | 19 ± 11.8 µM | 20.1 ± 1.36 µM | 0.41 ± 0.11 µM | 0.04 ± 0.01 µM | 0.09 ± 0.02 µM | 6.85 µM and 30.6 µM and 10.9 µM and 24.3 µM |  | 22.6 ± 1.52 µM |  |  |  | potency (IC50), Enzyme-based assay with heat-inactivated microsomes (recombinant human AChE [2]): Inactive; reversibility of AChE inhibition (result in words) (recombinant human AChE [6]): irreversibility |
| CCCCOc1ccc(C(=O)CCN2CCCCC2)cc1 [Dyclonine HCl, reference compound] |  | 20.9 ± 1.36 µM | 26.8 ± 10.1 µM |  |  | 20.2 ± 2.57 µM | 17.4 ± 3.65 µM | 23.5 ± 3.24 µM | 21.8 ± 2.5 µM | 16.3 ± 7.64 µM | 9.18 ± 9.47 µM | 27.3 µM (3×) and 30.6 µM (3×) and 19.3 µM and 34.3 µM |  | 31 ± 6.49 µM |  |  | R |  |
| CN1C[C@H](CNC(=O)OCc2ccccc2)C[C@@H]2c3cccc4c3c(cn4C)C[C@H]21 [Metergoline, reference compound] |  | 5.46 ± 1.98 µM | 20.9 ± 1.36 µM |  | 3.47 µM and 5.5 µM | 4.85 µM | 1.73 ± 0.75 µM | 4.17 ± 0.27 µM | 13.2 ± 0.85 µM | 5.79 ± 1.63 µM | 5.8 ± 1.64 µM | 21.7 µM and 12.2 µM (3×) and 13.7 µM and 27.3 µM and 9.68 µM (2×) and 10.9 µM |  | 21.7 µM |  |  |  |  |
| CCOP(=S)(OCC)Oc1cnc2ccccc2n1 [Quinalphos] |  | 55.9 µM | 36.8 ± 4.7 µM | -2.1 and 4 | 35.6 µM | 46.4 µM | 29.4 µM | 46.2 µM | 7.48 µM | 1.64 µM | 2.94 µM |  |  | 1.77 µM |  |  |  | AC50 (recombinant human AChE [6]; activity_60): 49.8 µM and 62.7 µM |
